# Like-named read-outs stand apart in the source and are kept apart here.
# How the values were obtained:
# [1] = biological target: T1, carnosine-degrading enzyme (Homo sapiens, UniProt Q96KN2); conditions: cited from earlier work
# T1 construct: host or cells: human blood
# T1 sequence (Q96KN2 27-507 limits assumed): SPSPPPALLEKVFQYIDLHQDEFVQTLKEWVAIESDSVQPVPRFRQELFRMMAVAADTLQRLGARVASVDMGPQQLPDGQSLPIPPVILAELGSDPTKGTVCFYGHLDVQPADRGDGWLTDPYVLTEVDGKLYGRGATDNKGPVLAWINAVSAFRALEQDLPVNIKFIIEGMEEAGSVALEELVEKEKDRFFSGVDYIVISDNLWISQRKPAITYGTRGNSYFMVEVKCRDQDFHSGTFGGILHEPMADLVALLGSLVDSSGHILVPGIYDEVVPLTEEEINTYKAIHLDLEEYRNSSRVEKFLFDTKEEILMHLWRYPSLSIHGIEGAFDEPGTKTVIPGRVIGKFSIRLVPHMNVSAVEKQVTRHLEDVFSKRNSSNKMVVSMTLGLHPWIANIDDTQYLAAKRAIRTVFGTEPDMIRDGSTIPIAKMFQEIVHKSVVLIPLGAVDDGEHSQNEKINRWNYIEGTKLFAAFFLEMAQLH
# STZ diabetic rats = test: anti-hyperglycemia in the STZ diabetic rats undergoing the oral glucose tolerance test; type: in vivo, rat
# Description: Wistar male rats (initial weight, about 250 g) were used. They were housed in a room illuminated with an incandescent light of 80 luxes on the average for 12 hours with free access to feed, and adapted to the environment at least 10 days. Three days before the experiment, rats under anesthesia with pentobarbital (35 mg/kg body weight, intraperitoneal administration) received the insertion of a cardiac catheter comprising a silastic tubing (Dow Corning, Midland, Mich.) and a polyethylene tubing (Clay Adams, Parsippany, N.J.) into the right atrium and a polyethylene tubing into the right lateral cerebral ventricle (LCV).
# Then, the STZ (streptozotocin) diabetic rats were created according to the report by Portha et al. (Diabetes 30:64-69, 1981). Streptozotocin (STZ, manufactured by Sigma) dissolved in 0.05 M citric acid solution (pH 4.5) at a concentration of […] was intraperitoneally administered at 60 mg/kg body weight. To the STZ diabetic rats thus created, an aqueous solution of glucose dissolved at 0.5 g/ml was orally administered at 1 ml (0.5 g) per animal (oral glucose load). Simultaneously with the glucose load, carnosine dissolved in physiological saline was administered to the rats intracranially (0.01 ml) or intraperitoneally (0.1 ml).
# The oral administration employed a sonde, and the intracranially administration was performed via a LVC polyethylene tube and the intraperitoneal administration employed an injection syringe and a needle. The control rats received physiological saline instead of carnosine, and an artificial cerebrospinal fluid instead of 2DG, each at the same amount. Before and at 15, 30, 60, and 90 minutes after the oral administration of glucose, 300 μl of blood was taken via the cardiac catheter and the glucose concentrations in the plasma (blood glucose levels) were determined. The glucose concentration in the plasma at the time of carnosine administration was calculated as a ratio (%) relative to the plasma glucose concentration before glucose administration set at 100. Four or five rats were used in the experiment. Data were tested with ANOVA (p<0.05) and were expressed as mean +/− standard error.
# [2] = tested on: DOCA-salt hypertensive rats; test: anti-hypertensive effect in DOCA-salt hypertensive rats (systolic blood pressure); type: in vivo, rat
# Description: Sprague-Dawley male rats (6-week old) were used. The animals were anesthetized by the intraperitoneal administration of pentobarbital at 40 mg/kg body weight, and the right flank was dissected to remove the right kidney. After the surgical operation and a one week recovery period, the animals were divided into the pseudosurgery (sham) group and the deoxycorticosterone acetate (DOCA) salt group. Each group was further divided into the normal diet group, the 0.001% carnosine-containing diet group, and the 0.0001% carnosine-containing group.
# The rats of the DOCA-salt group received the subcutaneous injection of DOCA suspended in corn oil at 15 mg/kg body weight twice per week, and tap water supplemented with 1% sodium chloride was given as the drinking water. The sham group received neither DOCA nor sodium chloride. The systolic blood pressure was monitored once per week for five weeks using the tail cuff and the pneumatic pulse transducer (BP-98A, Softron). The experiment employed 9 rats in the DOCA group and 6 rats in the sham group. Data were tested with ANOVA (p<0.05) and were expressed as mean +/− standard error.
# [3] = tested on: sympathetic nerve hepatic branches; test: efferent neural activity of the sympathetic nerve hepatic branches after intravenous carnosine; type: in vivo, rat; conditions: 100 ng intravenous
# Description: According to the method of Niijima (Neurobiology 3:299-307, 1995), the effect of carnosine on the autonomic nerve activity was investigated. Wistar male rats, weighing about 300 g, that had been kept in an environment of room temperature (24° C.) and free access to the feed were fasted (with free access to water) 12 hours before the start of the experiment. Rats were subjected to abdominal section under urethane anesthesia (1 g/kg body weight, intraperitoneal administration), neurofilaments were isolated from central cut ends of a sympathetic nerve branch or a vagal nerve branch, and the efferent neural activity was recorded via an AC amplifier. The neural activity was observed using an oscilloscope and was recorded into magnetic tape. At the same time, the time course of the neural activity was recorded with a pen-type recorder via a rate meter with a reset time set at 5 seconds.
# Carnosine (100 ng or 1,000 ng dissolved in 0.1 ml physiological saline) was intravenously administered. As the control, physiological saline (0.1 ml) was alone administered intravenously.
# The effect of carnosine administration was calculated as the neural activity count (%) after carnosine administration relative to neural activity count (mean value of 10 activity counts during 5 minutes) before administration set at 100. Five rats were used for each experiment. Data were tested with ANOVA (p<0.05) and were expressed as mean +/− standard error.
# [4] = cited from earlier work
smiles,measurement,setting,value
"NCCC(=O)N[C@@H](Cc1cnc[nH]1)C(=O)O [carnosine, β-alanyl-L-histidine]",activity of a carnosine-degrading enzyme in the blood,[1],2 to 7 µmol/h/mL
same,suppression rate of increase in blood glucose by oral glucose load,"STZ diabetic rats; 10 ng intracranial, 15 minutes",14.5%
same,suppression rate of increase in blood glucose by oral glucose load,"STZ diabetic rats; 10 ng intracranial, 30 minutes",17.3%
same,suppression rate of increase in blood glucose by oral glucose load,"STZ diabetic rats; 10 ng intracranial, 60 minutes",14.7%
same,suppression rate of increase in blood glucose by oral glucose load,"STZ diabetic rats; 10 ng intracranial, 90 minutes",11.4%
same,suppression rate of increase in blood glucose by oral glucose load,"STZ diabetic rats; 100 ng intraperitoneal, 60 minutes",14.3%
same,suppression rate of increase in blood glucose by oral glucose load,"STZ diabetic rats; 100 ng intraperitoneal, 90 minutes",12.4%
same,suppression rate of increase in systolic blood pressure,"[2]; 0.0001% carnosine-containing diet, week five",17.8%
same,suppression rate of increase in systolic blood pressure,"[2]; 0.0001% carnosine-containing diet, week four",22.1%
same,suppression rate of increase in systolic blood pressure,"[2]; 0.0001% carnosine-containing diet, week one",9.6%
same,suppression rate of increase in systolic blood pressure,"[2]; 0.0001% carnosine-containing diet, week three",15.0%
same,suppression rate of increase in systolic blood pressure,"[2]; 0.0001% carnosine-containing diet, week two",10.2%
same,suppression rate of increase in systolic blood pressure,"[2]; 0.001% carnosine-containing diet, week five",25.5%
same,suppression rate of increase in systolic blood pressure,"[2]; 0.001% carnosine-containing diet, week four",21.5%
same,suppression rate of increase in systolic blood pressure,"[2]; 0.001% carnosine-containing diet, week one",6.2%
same,suppression rate of increase in systolic blood pressure,"[2]; 0.001% carnosine-containing diet, week three",19.6%
same,suppression rate of increase in systolic blood pressure,"[2]; 0.001% carnosine-containing diet, week two",12.4%
same,suppression rate of efferent neural activity of the sympathetic nerve hepatic branches,[3]; 30 minutes after administration,20.1%
same,suppression rate of efferent neural activity of the sympathetic nerve hepatic branches,[3]; 60 minutes after administration,25.9%
same,suppression rate of efferent neural activity of the sympathetic nerve hepatic branches,[3]; 90 minutes after administration,32.0%
same,absorptivity relative to carnosine alone,[4]; administered to the jejunum of mice in combination with L-alanine,more than two-fold higher
same,absorptivity relative to carnosine alone,[4]; administered to the jejunum of mice with β-alanine,more than tripled
same,oral absorptivity,[4]; mice,30-70%

# Reference: US20030065030A1, “Autonomic controlling agents and health drinks and foods” (priority 2001, published 2003)
